The values below are quoted from earlier work in patent US8163169B2, “Hydroconversion processes employing multi-metallic catalysts and method for making thereof” (Chevron U.S.A. Inc., priority 2007, dated 2012).

In general, LD50 refers to the dose expected to kill half of the subjects tested.

For the data set, the system named is rats. The settings on record: single oral dose to rats.

Turning to `O=CC(=O)O` [glyoxylic], the 50% lethal dose (LD50) was 3000 mg/kg.
